Source: PMC9867837 (Cancer letters, 2022)

Experiments:
[1] = biological target: T1, Stat1:Stat1 DNA-binding activity (Mus musculus, UniProt P42225); assay: EMSA of Stat1:Stat1 DNA-binding activity in nuclear extracts of EGF-stimulated NIH3T3/hEGFR; format: biochemical; details: Fig. 1C, 30 min
T1 construct: endogenous in cells; host or cells: EGF-stimulated NIH3T3/hEGFR fibroblasts (nuclear extract)
T1 sequence (P42225 2-749 limits assumed): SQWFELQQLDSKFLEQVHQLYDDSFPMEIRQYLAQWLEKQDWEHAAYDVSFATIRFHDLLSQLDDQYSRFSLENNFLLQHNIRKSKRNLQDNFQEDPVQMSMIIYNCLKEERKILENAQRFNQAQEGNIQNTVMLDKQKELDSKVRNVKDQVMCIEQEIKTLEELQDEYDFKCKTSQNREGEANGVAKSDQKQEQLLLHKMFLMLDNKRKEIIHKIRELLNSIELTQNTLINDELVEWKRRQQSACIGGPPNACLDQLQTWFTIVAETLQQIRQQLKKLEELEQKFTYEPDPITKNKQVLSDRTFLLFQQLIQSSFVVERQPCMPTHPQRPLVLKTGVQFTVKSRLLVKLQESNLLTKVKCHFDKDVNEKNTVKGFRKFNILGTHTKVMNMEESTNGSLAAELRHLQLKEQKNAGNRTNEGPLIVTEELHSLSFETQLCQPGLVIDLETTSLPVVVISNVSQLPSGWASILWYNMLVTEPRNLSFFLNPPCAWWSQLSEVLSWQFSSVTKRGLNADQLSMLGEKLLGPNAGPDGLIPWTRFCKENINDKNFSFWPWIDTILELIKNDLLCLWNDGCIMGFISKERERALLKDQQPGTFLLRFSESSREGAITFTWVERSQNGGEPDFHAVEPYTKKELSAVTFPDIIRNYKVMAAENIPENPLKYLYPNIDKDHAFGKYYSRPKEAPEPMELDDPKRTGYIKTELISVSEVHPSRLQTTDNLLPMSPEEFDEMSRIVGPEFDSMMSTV
Experimental: (§1) These studies were carried out as previously described using the ^32P-labeled oligonucleotide probes, hSIE (high affinity sis-inducible element from the c-fos gene, m67 variant, 5^′-[…]) that binds Stat1 and Stat3 [11, 12] and the mammary gland factor element (MGFe) from the bovine β–casein gene promoter (sense strand, 5^′-[…]) that binds Stat5 and Stat1 [11, 12]. Details are presented in Supplementary Information, “Methods”. […]
(§2) min, prior to incubation with the radiolabeled probe for 30 min at 30 °C and subjecting to EMSA analysis.
(§3) In another case, the nuclear extract was pre-incubated with the radiolabeled probe for 30 min at 30 °C prior to incubation with increasing concentration of H182 at room temperature for 30 min and subjecting to EMSA analysis. Bands corresponding to Stats DNA- binding activities were scanned and quantified using ImageJ and plotted as a percentage of control (vehicle) against the concentration of the inhibitor, from which the IC50 values were derived .

[2] = biological target: Stat5:Stat5 DNA-binding activity; assay: EMSA of Stat5:Stat5 DNA-binding activity in nuclear extracts of EGF-stimulated NIH3T3/hEGFR; format: biochemical, mouse; details: Fig. 1C, MGFe probe, 30 min
Experimental: as §1, §2, §3

Stat3 = Stat3 (Homo sapiens, UniProt P40763); assay: EMSA of constitutive Stat3 DNA-binding activity in nuclear extracts of treated breast cancer cells; format: cell-based; set-up: endogenous in cells; details: MDA-MB-468 and MDA-MB-231, 0–5 μM, 1 or 2 h
Experimental: These studies were carried out as previously described using the ^32P-labeled oligonucleotide probes, hSIE (high affinity sis-inducible element from the c-fos gene, m67 variant, 5^′-[…]) that binds Stat1 and Stat3 [11, 12] and the mammary gland factor element (MGFe) from the bovine β–casein gene promoter (sense strand, 5^′-[…]) that binds Stat5 and Stat1 [11, 12]. Details are presented in Supplementary Information, “Methods”.
Nuclear extracts and whole-cell lysates were prepared, and samples of equal total protein were subjected to Stat3 DNA-binding assay/EMSA analysis using the hSIE probe, or to SDS/PAGE and Western blotting analysis for pY705Stat3, Stat3, or GAPDH [11, 12]. […] Depending on the concentration (1, 3, or 5 μM), the inhibitory effects of the azetidine compounds were observed relatively early, at 30–60 min, on both Stat3 DNA-binding activity (Fig. 4C) and Tyr phosphorylation (Fig. 4D, pY705Stat3).

MDA-MB-231 cells = assay: CyQuant viable cell number assay, MDA-MB-231; format: cell-based, human; details: Homo sapiens, MDA-MB-231, read-out: IC50 viable cell numbers, MDA-MB-231; CyQuant, 72 h
Experimental: CyQuant assay was performed to evaluate compounds as previously reported. Details are presented in Supplementary Information, “Methods”. […]
1.2.6. Cell viability assays
CyQuant assay was performed to evaluate compounds as previously reported [1 -3] . Briefly, cells (5 x 10^3 per well, 100 µl) in culture in 96-well plates were treated once with 0 -10 µM concentrations of H120, H105, […]
concentration of H182 for 6 h and then treated with 0- 100 nM docetaxel or 0-20 µM cisplatin for a total of 72 h. Viable cell numbers were assessed by a CyQuant cell proliferation kit according to the manufacturer’s instructions (Thermo/Life Technologies Corp, Carlsbad, CA). Viable cell numbers were normalized to that of DMSO (control)-treated samples. […]

[3] = first Stat1:Stat1 value listed (hSIE probe)
[4] = second Stat1:Stat1 value listed (MGFe probe)

Stat3, sequence (P40763 whole entry): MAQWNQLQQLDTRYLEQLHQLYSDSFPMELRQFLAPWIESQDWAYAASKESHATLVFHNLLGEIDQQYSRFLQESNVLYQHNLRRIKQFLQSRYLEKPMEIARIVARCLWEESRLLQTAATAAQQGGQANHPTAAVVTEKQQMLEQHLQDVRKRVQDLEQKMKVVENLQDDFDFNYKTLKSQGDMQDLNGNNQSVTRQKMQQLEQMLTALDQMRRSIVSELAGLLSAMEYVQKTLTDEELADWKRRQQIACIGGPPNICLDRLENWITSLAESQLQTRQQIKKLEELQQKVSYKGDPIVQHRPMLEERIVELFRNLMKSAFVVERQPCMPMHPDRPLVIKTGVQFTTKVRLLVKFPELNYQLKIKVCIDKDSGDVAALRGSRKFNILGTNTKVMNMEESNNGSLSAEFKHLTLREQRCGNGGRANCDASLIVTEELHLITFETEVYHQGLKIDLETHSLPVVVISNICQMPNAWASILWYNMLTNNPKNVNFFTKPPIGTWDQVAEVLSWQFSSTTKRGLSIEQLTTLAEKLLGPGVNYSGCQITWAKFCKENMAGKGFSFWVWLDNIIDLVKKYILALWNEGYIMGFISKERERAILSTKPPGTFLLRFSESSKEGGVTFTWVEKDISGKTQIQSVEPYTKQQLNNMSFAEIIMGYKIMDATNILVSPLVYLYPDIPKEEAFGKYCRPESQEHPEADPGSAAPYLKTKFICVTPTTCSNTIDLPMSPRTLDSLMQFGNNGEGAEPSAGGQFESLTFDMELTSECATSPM

| SMILES | IC50 [1, 3] | IC50 [1, 4] | IC50 [2] | Effect on constitutive Stat3 DNA-binding activity in cells (Stat3) | IC50 (MDA-MB-231 cells) |
| --- | --- | --- | --- | --- | --- |
| O=C([C@H]1CCN1S(=O)(=O)c1c(F)c(F)c(F)c(F)c1F)N(Cc1ccc(C2CCCCC2)cn1)c1ccc2c(=O)[nH]cnc2c1 [Compound H172] | > 20 µM | > 20 µM | 20 µM | dose-dependent inhibition | 3.3 µM |
| O=C([C@H]1CCN1S(=O)(=O)c1c(F)c(F)c(F)c(F)c1F)N(Cc1ccc(C2CCCCC2)cn1)c1ccc2c(=O)[nH]ncc2c1 [Compound H182] | 16.8 µM | 17.8 µM | 19.1 µM | dose-dependent inhibition | 1 µM |
